Experimental data as given in patent US20060134073A1, “Compositions and methods for ex vivo preservation of blood vessels for vascular grafts using analogues of cAMP and cGMP” (priority 2004, published 2006).
Several values for one entry are separate records, joined by “and”; a condition that tells them apart may be missing. Equal entries are not always repeated.

Experiments:
[1] = system: endothelium (CD31) of porcine venous graft; test: porcine vein graft model: endothelialization score (CD31 staining); format: in vivo; conditions: for B.Endothelialization Score CD31 Staining, Left IJV Experimental: mean score on 0-5 scale, graft incubated 60 minutes in test solution before implantation, one animal per line; for endothelialization of treated venous graft compared to control contralateral venous graft: in words, based on slightly higher endothelialization scores
Procedure: (§1) 6.4 The following experiments were performed to determine the ability of various compounds to preserve vein grafts before implantation in a porcine vein graft model. Briefly, the vein grafts were excised from the pig, incubated in solutions containing the various test compounds, implanted back into the pig and excised after a set period of days. The excised veins were then examined for a variety of factors to determine the protective effect of the various compounds.
Anti-CD31 antibody: An indirect immunoperoxidase procedure was performed. Slides were treated with Declere antigen retrieval solution for 15 minutes followed by two rinses in phosphate-buffered saline (PBS [0.15M NaCl, pH 7.2]+0.05% Tween 20). The slides were then treated with 3% hydrogen peroxide to block endogenous peroxidase activity. After two PBS (0.15M NaCl, pH 7.2)+0.05% Tween 20 rinses, the slides were incubated for 20 minutes in a nonspecific protein block comprising 1% BSA, 1.5% normal horse serum, and 5% milk in PBS (0.15M NaCl, pH 7.2)+0.05% Tween 20. The slides were then incubated with primary antibody for 2 hours at 37° C. followed by two PBS (0.15M NaCl, pH 7.2)+0.05% Tween 20 rinses. The biotinylated secondary antibody was then added and incubated for 30 minutes. After two rinses in PBS (0.15M NaCl, pH 7.2)+0.05% Tween 20, the slides were treated with ABC reagent for 30 minutes followed by two PBS (0.15M NaCl, pH 7.2)+0.05% Tween 20 rinses. The slides were incubated with stable DAB substrate for 6 minutes, rinsed in tap water, counterstained with hematoxylin, and blued with lithium chloride. Finally, all slides were dehydrated in increasing concentrations of alcohol, cleared with xylene, and mounted for interpretation. PBS (0.15M NaCl, pH 7.2)+0.05% Tween 20+1% BSA served as the diluent for the primary antibody and ABC reagent. The diluent for the secondary antibody also contained 1% milk. All rinses were performed with PBS (0.15M NaCl, pH 7.2) supplemented with 0.05% Tween 20.
For the anti-CD31 antibody, all slides were judged for adequacy of tissue elements and staining and read blind by the Study Pathologist to quantify the degree of endothelialization of each section of venous graft tissue using the following scale: 0=no endothelialization, 1=less than 25% endothelialization, 2=25-50% endothelialization, 3=51-75% endothelialization, 4=greater than 75% endothelialization, 5=complete endothelialization. A mean score among the four venous graft sections for each test group was calculated.
(§2) This study tested the ability of a variety of preservation solutions to retard chronic intimal hyperplasia and protect vein grafts from restenosis and obstruction in a porcine interpositional graft model. The markers of inflammation of interest in this study were CD31 (PECAM-1), CD54 (ICAM-1), and macrophages (L1 or Calprotectin) in formalin-fixed, paraffin-embedded porcine venous graft tissues. Specifically, a porcine internal jugular vein was end to side anastamosed to the ipsilateral carotid artery, following 60 minutes of incubation in heparinized saline (negative control), Phorbol Myristate Acetate (PMA) as positive control, or experimental solutions. In addition to the detection of macrophages with either L1 or Calprotectin antibodies, anti-CD31 was used to detect endothelial cells, and Movat's Trichrome stain, together with biomorphometry was used to measure the percent of intimal expansion. For detection of CD31, an anti-CD31 antibody was applied to formalin-fixed, paraffin-embedded porcine spleen at one dilution (1:50). This dilution of anti-CD-31 antibody had strong to intense staining of splenic endothelium (positive control material). In order to detect CD54, mouse antihuman CD54 antibody was applied at one concentration (50 μg/mL) to ICAM-1/CD54 ultraviolet light (UV) activated resin spot slides. There was strong to intense staining of the ICAM-1/CD54 UV activated resin spot slides with 50 μg/mL of anti-CD54 antibody. […]

[2] = system: porcine venous graft (intimal hyperplasia); test: porcine vein graft model: % neointimal expansion (histomorphometry, Movat's stain); format: in vivo; conditions: for C.% Neointimal Expansion Movat's Trichrome [100 * (neointima area/neointima area + lumen area], Left IJV Experimental: graft incubated 60 minutes in test solution before implantation, one animal per line; for % neointimal expansion (% NE) compared to contralateral venous graft and heparinized saline negative control: in words
Procedure: as §1
All slides were also stained with hematoxylin and eosin (H&E) and Movat's Pentachrome stains in preparation for histomorphometry. Calculations based on morphometry measurements were made using Microsoft Excel® software. For histomorphometry, neointimal area, luminal area, and percentage of neointimal expansion (100×[neointimal area/neointimal area+luminal area) was calculated for each venous graft section and the mean for each vessel were calculated.
This study tested the ability of a variety of preservation solutions to retard chronic intimal hyperplasia and protect vein grafts from restenosis and obstruction in a porcine interpositional graft model. The markers of inflammation of interest in this study were CD31 (PECAM-1), CD54 (ICAM-1), and macrophages (L1 or Calprotectin) in formalin-fixed, paraffin-embedded porcine venous graft tissues. Specifically, a porcine internal jugular vein was end to side anastamosed to the ipsilateral carotid artery, following 60 minutes of incubation in heparinized saline (negative control), Phorbol Myristate Acetate (PMA) as positive control, or experimental solutions. In addition to the detection of macrophages with either L1 or Calprotectin antibodies, anti-CD31 was used to detect endothelial cells, and Movat's Trichrome stain, together with biomorphometry was used to measure the percent of intimal expansion. For detection of CD31, an anti-CD31 antibody was applied to formalin-fixed, paraffin-embedded porcine spleen at one dilution (1:50). This dilution of anti-CD-31 antibody had strong to intense staining of splenic endothelium (positive control material). In order to detect CD54, mouse antihuman CD54 antibody was applied at one concentration (50 μg/mL) to ICAM-1/CD54 ultraviolet light (UV) activated resin spot slides. There was strong to intense staining of the ICAM-1/CD54 UV activated resin spot slides with 50 μg/mL of anti-CD54 antibody. The detection of macrophages was performed by the application of one concentration (2 μg/mL) of mouse anti-human macrophages antibody to formalin-fixed, paraffin embedded porcine spleen. There was moderate staining of macrophages with 2 μg/mL of anti-macrophages antibody. […] All slides were also stained with hematoxylin and eosin (H&E) and Movat's Pentachrome stains in preparation for histomorphometry.

[3] = system: macrophages on the intima of porcine venous graft; test: porcine vein graft model: macrophages on/in intima (anti-macrophage immunoperoxidase); format: in vivo; conditions: for A.Average Number of Macrophages on/in Intima* (400X objective) MAC-1 Staining, Left IJV Experimental: graft incubated 60 minutes in test solution before implantation, one animal per line
Procedure: as §1
Anti-macrophage antibody: An indirect immunoperoxidase procedure was performed. Slides were treated with Declere antigen retrieval solution for 15 minutes followed by one rinse in phosphate-buffered saline (PBS) ([0.15M NaCl, pH 7.2]+0.05% Tween 20). Endogenous peroxidase activity was quenched by incubation with the peroxidase solution supplied in the Dako EnVision+ kit followed by two rinses in PBS (0.15M NaCl, pH 7.2)+0.05% Tween 20. The slides were then incubated for 20 minutes in a nonspecific protein block solution comprising 1% BSA and 1.5% normal goat serum in PBS (0.15M NaCl, pH 7.2)+0.05% Tween 20 followed by incubation with primary antibody for 1 hour. After two PBS (0.15M NaCl, pH 7.2)+0.05% Tween 20 rinses, the slides were treated with the Dako EnVision+ peroxidase labeled polymer for 30 minutes. The slides were rinsed twice with PBS (0.15M NaCl, pH 7.2)+0.05% Tween 20 and treated with Dako substrate-chromogen solution for 8 minutes. The slides were then rinsed in tap water, counterstained with hematoxylin, and blued with lithium chloride. Finally, the slides were dehydrated in increasing concentrations of alcohol, cleared with xylene, and mounted for interpretation. PBS (0.15M NaCl, pH 7.2)+0.05% Tween 20+1% BSA served as the diluent for all antibodies. All rinses were performed with PBS (0.15M NaCl, pH 7.2) supplemented with 0.05% Tween 20.
For the anti-macrophage antibody, all slides were judged for adequacy of tissue elements and staining and read blind by the Study Pathologist to quantify the number of macrophages on the intima of the porcine venous graft tissues. The quantification was performed by counting at 400× the number of positively stained macrophages in and on the intima of each section of venous graft tissue in 10 fields and then taking the average number of macrophages per field for each section. A mean score among the four venous graft sections for each test group was calculated.
as §2

porcine venous graft = test: porcine vein graft model: graft occlusion at explant; format: in vivo; set-up: key: SO = substantially occluded; conditions: graft incubated 60 minutes in test solution before implantation; one animal per line
Procedure: as §1
This study tested the ability of a variety of preservation solutions to retard chronic intimal hyperplasia and protect vein grafts from restenosis and obstruction in a porcine interpositional graft model. The markers of inflammation of interest in this study were CD31 (PECAM-1), CD54 (ICAM-1), and macrophages (L1 or Calprotectin) in formalin-fixed, paraffin-embedded porcine venous graft tissues. Specifically, a porcine internal jugular vein was end to side anastamosed to the ipsilateral carotid artery, following 60 minutes of incubation in heparinized saline (negative control), Phorbol Myristate Acetate (PMA) as positive control, or experimental solutions. In addition to the detection of macrophages with either L1 or Calprotectin antibodies, anti-CD31 was used to detect endothelial cells, and Movat's Trichrome stain, together with biomorphometry was used to measure the percent of intimal expansion. […]

[4] = system: jugular vein patch graft (neointimal hyperplasia); test: murine autologous arterialized vein patch model: neointimal expansion of vein grafts; format: in vivo, C57BL/6J mice; conditions: vein patch preserved 2 hours at 25° C. in heparinized saline with additive (db-cAMP 2 mmol/L; 8-Br-cAMP 0.1 mmol/L; Rp-cAMPS 0.25 mmol/L), harvested postoperative day 21; mean ±SEM
endothelial cells = conditions: stated as known; cited from earlier work
[5] = system: MAC-1+ leukocytes adhering to the endothelium of the vein patch; test: en face immunofluorescence: MAC-1+ leukocyte adhesion to vein patch; format: in vivo, C57BL/6J mice; conditions: 2 hours of preservation with db-cAMP vs without additive; 24 hours after operation; P<0.05

Compound | B.Endothelialization Score CD31 Staining, Left IJV Experimental [1] | C.% Neointimal Expansion Movat's Trichrome [100 * (neointima area/neointima area + lumen area], Left IJV Experimental [2] | % neointimal expansion (% NE) compared to contralateral venous graft and heparinized saline negative control [2] | A.Average Number of Macrophages on/in Intima* (400X objective) MAC-1 Staining, Left IJV Experimental [3] | graft status printed in place of a value (Left IJV Experimental) (porcine venous graft) | neointimal expansion [4] | db cAMP concentrations that become toxic to endothelial cells (endothelial cells) | endothelialization of treated venous graft compared to control contralateral venous graft [1] | MAC-1+ cells adhered to the surface of vein patch [5] | macrophage scores of treated venous graft compared to contralateral venous graft ([3]; in words)
CCCCCCCCCCCCCC(=O)O[C@@H]1[C@@H](C)[C@@]2(O)[C@@H](C=C(CO)C[C@]3(O)C(=O)C(C)=C[C@@H]23)[C@@H]2C(C)(C)[C@]12OC(C)=O [PMA, Phorbol Myristate Acetate] | 4.5 and 5 | 78.9% and 78.8% | slight increase | 0 and 3.55 |  |  |  |  |  | 
Enbrel |  |  |  |  | SO |  |  |  |  | 
O=C1CCC(N2C(=O)c3ccccc3C2=O)C(=O)N1 (centres unmarked) [Thalidomide] | 4.75 and 4.5 | 78.2% and 80.0% |  | 1.15 and 1.45 |  |  |  |  |  | 
Nc1ncnc2c1nc(Br)n2[C@@H]1O[C@@H]2COP(=O)(O)O[C@H]2[C@H]1O [8-Br-cAMP, 8-bromo-adenosine 3′,5′-cyclic monophosphate] |  |  |  |  |  | 44.3%±5.0% |  |  |  | 
CCCC(=O)Nc1ncnc2c1ncn2[C@@H]1O[C@@H]2COP(=O)(O)O[C@H]2[C@H]1OC(=O)CCC [db-cAMP, N^6,2′-O-dibutyryl adenosine 3′,5′-cyclic monophosphate] | 5 | 55.6% | large and significant increase | 0.025 |  | 51.0%±4.7% | higher than 4 mM | better endothelialization | markedly decreased | decreases
Cc1[nH]c(=O)c(C#N)cc1-c1ccncc1 [Milrinone (PDSIII), Milrinone] | 5 | 70.4% |  | 0 | SO |  |  | better endothelialization |  | 
Lipopolysaccaride | 4.75 | 77.7% |  | 1.575 |  |  |  |  |  | 
